What was measured:
h NaV1.5 = molecular target: T1, h NaV1.5 (Homo sapiens, UniProt Q14524, R1027Q); experiment: TEVC recordings in X. laevis oocytes, NaV1.5; assay type: cell-based; conditions: for Ionic current block INa: from inhibition curves, used for simulation
T1 construct: expressed in transfected cells; host or cells: Xenopus laevis oocytes injected with cRNA
Protocol: (§1) To obtain X. laevis oocytes, the frogs were anesthetized with 2 g/L of tricaine methanesulfonate, and the ovarian lobes were mechanically separated with forceps. The oocytes were incubated for 120 min in an OR2 solution containing in mM: NaCl 82.5, KCl 2, MgCl2 1, HEPES 5 (pH 7.5) supplemented with 2 mg/ml of collagenase II (Sigma) to remove residual connective tissue and obtain individual oocytes. Subsequently, the oocytes were washed with a ND96 solution containing in mM: NaCl 96, KCl 2, CaCl2 1.8, MgCl2 1, HEPES 5 (pH 7.5, adjusted with NaOH) and stored at 18 °C in ND96 solution supplemented with 1 ml of gentamicin (50 mg/L), sodium pyruvate (275 mg/L) and (90 mg/L) theophylline (inhibits further oocyte maturation) before and after RNA injection.
(§2) In order to overexpress the channel in the oocyte, each of the channels to be measured was subcloned (complementary DNA (cDNA); human TASK-1 (KCNK3, NM_002246), h KV1.5 (KCNA5, NM_002234), h NaV1.5 (hH1, M77235), TASK-4/TALK-2 (KCNK17, NM_AF358910), TREK-1 (KCNK2, AF004711) and Kir2.1 (KCNJ2, NM_017296) into pSGEM, pBF1 or pSP64 expression vector, and the cDNA was linearized with NheI or MluI. Complementary RNA (cRNA) was synthesized with the mMESSAGE mMACHINE-Kit (Ambion). The quality of the cRNA was tested on an agarose gel by electrophoresis. cRNA was quantified using a UV-Vis spectrophotometer (NanoDrop 2000). Subsequently, the channel was transfected in the oocytes in stages V and VI, for which […] (TASK-1, KV1.5 or TREK-1), 10 ng (NaV1.5 or TASK-4) o 2.5 ng (Kir2.1) per oocyte of cRNA was injected with a NanojectII microinjector (Drummond Scientific). The oocytes were stored in 24-well plates for 24 to 48 h at 18 °C. After this time, the overexpression of each channel was monitored through electrophysiology.
(§3) Two-electrode voltage clamp measurements were performed 24 or 48 h after cRNA injection at room temperature (20–22 °C) in ND96 recording solution with a TurboTEC-10CD (npi) amplifier and a Digidata 1550B (for TASK-1 and KV1.5) and 1440A (for NaV1.5) A/D converter from Axon Instruments. Micropipettes were fabricated from GB 150 TF-8P borosilicate glass capillaries (Science Products) elongated in a DMZ-Universal Puller (Zeitz, Germany). […] ND96 was used as bath solution. Data acquisition was performed using Clampex 10 software (Axon Instruments), and data were analyzed with ClampFit 10 (Axon Instruments) and Origin 7 (Origin Lab Corporation).
(§4) For compound inhibition testing, from a holding potential of −80 mV a first test pulse to 0 mV of 1 s duration was followed by a repolarization step at −80 mV for 1 s, directly followed by another 1 s test pulse at +40 mV. The sweep time interval was 10 s for KV1.5 and TASK-1 channels. For the NaV1.5 channel, the block was analyzed with voltage steps from a holding potential of −80 mV. A first depolarizing pulse to −30 mV of 50 ms duration was applied, followed by a 5 ms step to −80 mV. The sweep time interval was 5 s. The compounds were applied at different concentrations to determine the half-maximal inhibitory concentration (IC50), using a fit to the Hill equation.
(§5) To test for a putative voltage-dependence of the block by the compound 6f in KV1.5, a 1.5 s voltage step protocol from −80 to +80 mV with +20 mV increments was used. The holding potential was −80 mV and the sweep time interval was 10 s. Currents were analyzed at the end of the voltage pulse. For TASK-1, voltage-dependence of block was probed using a high-potassium solution (KD96) containing in mM: KCl 96, NaCl 2, CaCl2 1.8, MgCl2 1, HEPES 5, (pH 7.5, adjusted with KOH). From a holding potential of 0 mV, voltage was stepped from −80 mV to +80 mV for 1.5 s in +20 mV steps every 10 s. To determine the current-voltage relationship of the NaV1.5 channel, the voltage was stepped for 50 ms from a holding potential of −80 mV to −70 mV to +80 mV in +10 mV increments every 5 s. The peak currents were subsequently plotted against the respective applied voltages.

h KV1.5 = molecular target: T2, h KV1.5 (Homo sapiens, UniProt P22460); experiment: TEVC recordings in X. laevis oocytes, KV1.5; assay type: cell-based; conditions: for Ionic current block IKur: from inhibition curves, used for simulation
T2 construct: h KV1.5 (KCNA5, NM_002234); expressed in transfected cells; host or cells: Xenopus laevis oocytes injected with cRNA
T2 sequence (P22460 whole entry): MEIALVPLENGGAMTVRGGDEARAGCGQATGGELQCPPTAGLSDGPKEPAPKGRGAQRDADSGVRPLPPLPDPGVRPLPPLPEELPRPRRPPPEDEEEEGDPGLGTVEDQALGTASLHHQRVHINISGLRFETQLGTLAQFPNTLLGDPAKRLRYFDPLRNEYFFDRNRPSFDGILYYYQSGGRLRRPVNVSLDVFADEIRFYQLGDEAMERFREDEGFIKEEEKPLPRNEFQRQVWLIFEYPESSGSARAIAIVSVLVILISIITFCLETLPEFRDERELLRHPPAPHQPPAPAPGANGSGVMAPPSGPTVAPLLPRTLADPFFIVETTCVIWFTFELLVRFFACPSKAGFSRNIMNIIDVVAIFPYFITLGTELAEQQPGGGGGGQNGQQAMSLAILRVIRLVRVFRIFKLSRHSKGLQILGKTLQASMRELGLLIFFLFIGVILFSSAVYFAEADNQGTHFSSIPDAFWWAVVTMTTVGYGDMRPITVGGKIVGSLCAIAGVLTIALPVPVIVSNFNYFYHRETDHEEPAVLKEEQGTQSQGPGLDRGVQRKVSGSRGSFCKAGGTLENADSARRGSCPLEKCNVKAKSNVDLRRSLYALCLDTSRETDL
Protocol: The two-electrode voltage clamp (TEVC) technique was used for electrophysiology tests. Channels were expressed in Xenopus laevis oocytes. The initial channel-blocking potential was assessed at 100 μM for the 10 synthesized compounds on TASK-1 and KV1.5 channels.
as §1, §2, §3, §4
as §5, with “To determine the current-voltage relationship of the NaV1.5 channel, the voltage was stepped for 50 ms from a holding potential of −80 mV to −70 mV to +80 mV in +10 mV increments every 5 s. The peak currents were subsequently plotted against the respective applied voltages.” left out

T1 sequence (Q14524 whole entry R1027Q): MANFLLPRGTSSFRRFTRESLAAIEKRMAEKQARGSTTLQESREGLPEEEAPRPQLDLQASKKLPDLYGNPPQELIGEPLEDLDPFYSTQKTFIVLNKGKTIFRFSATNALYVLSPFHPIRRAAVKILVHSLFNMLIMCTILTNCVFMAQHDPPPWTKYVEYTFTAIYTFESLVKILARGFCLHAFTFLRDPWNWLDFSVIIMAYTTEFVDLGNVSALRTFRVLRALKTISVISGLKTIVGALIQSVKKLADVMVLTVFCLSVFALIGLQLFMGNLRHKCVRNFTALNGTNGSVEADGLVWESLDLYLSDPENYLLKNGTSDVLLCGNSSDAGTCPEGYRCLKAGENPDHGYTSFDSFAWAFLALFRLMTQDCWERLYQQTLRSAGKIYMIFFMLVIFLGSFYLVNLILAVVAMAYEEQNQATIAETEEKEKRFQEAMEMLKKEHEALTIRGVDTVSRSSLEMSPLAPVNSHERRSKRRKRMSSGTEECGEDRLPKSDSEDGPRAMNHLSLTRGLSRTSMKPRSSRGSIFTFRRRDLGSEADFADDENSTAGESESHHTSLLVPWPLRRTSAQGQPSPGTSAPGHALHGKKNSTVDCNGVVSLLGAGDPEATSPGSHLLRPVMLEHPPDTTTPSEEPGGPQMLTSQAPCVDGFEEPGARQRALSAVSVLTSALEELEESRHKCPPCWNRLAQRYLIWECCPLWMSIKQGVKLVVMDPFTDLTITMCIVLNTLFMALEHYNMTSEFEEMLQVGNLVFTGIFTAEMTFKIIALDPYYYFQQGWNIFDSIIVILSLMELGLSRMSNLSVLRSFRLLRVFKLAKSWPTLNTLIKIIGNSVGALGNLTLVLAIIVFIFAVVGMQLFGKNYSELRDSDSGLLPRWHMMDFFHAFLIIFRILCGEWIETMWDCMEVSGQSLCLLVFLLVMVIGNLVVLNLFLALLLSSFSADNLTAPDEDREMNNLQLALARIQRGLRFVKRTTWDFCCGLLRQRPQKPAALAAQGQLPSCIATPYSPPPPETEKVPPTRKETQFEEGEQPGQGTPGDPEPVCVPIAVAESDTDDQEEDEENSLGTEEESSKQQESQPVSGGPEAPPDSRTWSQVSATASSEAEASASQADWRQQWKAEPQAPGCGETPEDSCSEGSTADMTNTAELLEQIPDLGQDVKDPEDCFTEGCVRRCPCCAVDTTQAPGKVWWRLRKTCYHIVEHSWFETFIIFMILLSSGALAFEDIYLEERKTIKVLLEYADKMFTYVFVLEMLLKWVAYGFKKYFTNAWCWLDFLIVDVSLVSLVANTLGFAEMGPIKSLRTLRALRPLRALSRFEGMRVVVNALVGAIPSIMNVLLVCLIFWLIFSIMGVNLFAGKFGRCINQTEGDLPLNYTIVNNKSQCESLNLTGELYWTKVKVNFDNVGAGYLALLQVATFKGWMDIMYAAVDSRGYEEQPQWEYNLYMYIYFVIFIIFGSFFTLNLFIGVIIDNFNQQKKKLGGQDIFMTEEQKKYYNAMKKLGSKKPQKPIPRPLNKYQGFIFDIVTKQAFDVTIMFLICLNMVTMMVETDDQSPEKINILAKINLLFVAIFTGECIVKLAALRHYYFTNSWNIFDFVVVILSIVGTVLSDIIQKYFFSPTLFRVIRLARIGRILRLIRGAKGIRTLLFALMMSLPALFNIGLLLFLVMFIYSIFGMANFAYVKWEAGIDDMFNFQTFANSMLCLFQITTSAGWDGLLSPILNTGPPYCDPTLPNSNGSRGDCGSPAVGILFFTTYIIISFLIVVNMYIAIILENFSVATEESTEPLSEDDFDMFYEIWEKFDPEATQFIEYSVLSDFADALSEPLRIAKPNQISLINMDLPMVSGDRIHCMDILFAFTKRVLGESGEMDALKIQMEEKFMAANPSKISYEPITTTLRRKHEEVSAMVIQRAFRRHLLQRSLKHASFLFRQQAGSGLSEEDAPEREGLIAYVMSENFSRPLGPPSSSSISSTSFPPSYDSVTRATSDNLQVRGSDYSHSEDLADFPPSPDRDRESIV

Ionic current block IKur (h KV1.5; 1 μM): 0% | Ionic current block IKur (h KV1.5; 10 μM): 2.5% | inhibition at 100 µM (h KV1.5; 100 μM, +40 mV, oocytes, mean ± SD): 55.8 ± 11.5% | Ionic current block IKur (h KV1.5; 100 μM): 50% | IC50 (h KV1.5; X. laevis oocytes, TEVC, block at +40 mV): 81.5 µM | Voltage-dependence of block of KV1.5 (h KV1.5; oocytes, 100 μM): no significant voltage-dependence
Compound: CCCCN(CCCC)CC(=O)Nc1ccc(OC)cc1OC [Compound 6f, 2-(dibutylamine)-N-(2,4-dimethoxiphenyl)acetamide]
Ionic current block INa (h NaV1.5; 1 μM): 16% | Ionic current block INa (h NaV1.5; 10 μM): 30% | Ionic current block INa (h NaV1.5; 100 μM): 65% | inhibition at 100 µM (h NaV1.5; 100 μM, −30 mV, oocytes, mean ± SD): 62.4 ± 20.6% | Voltage-dependence of block of NaV1.5 (h NaV1.5; oocytes, 100 μM): small but significant variations | Frequency-dependent inhibition of NaV1.5 (h NaV1.5; oocytes, 100 μM, 1, 2 and 3 Hz): did not observe a significant frequency-dependent inhibition

Source: PMC12131194, “Rational design, synthesis, and evaluation of novel polypharmacological compounds targeting NaV1.5, KV1.5, and K2P channels for atrial fibrillation” (The Journal of Biological Chemistry, 2025)
